Source: patent US9144238B2, “Active compound combinations” (BAYER INTELLECTUAL PROPERTY GMBH, priority 2011, dated 2015)
Where two headings read alike, the source gives them in different places.

Columns and labels:
Venturia inaequalis = test: Venturia test (apples)/preventive; format: in vivo; settings: Venturia inaequalis, 240 h, read-out: Efficacy in % found; for pest or weed control at 50 ppm: Table 11, 50 ppm a.i.
Experimental: (§1) To produce a suitable preparation of active compound, 1 part by weight of active compound is mixed with the stated amounts of solvent and emulsifier, and the concentrate is diluted with water to the desired concentration.
To test for preventive activity, young plants are sprayed with the preparation of active compound at the stated rate of application. After the spray coating has dried on, the plants are inoculated with an aqueous conidia suspension of the causal agent of apple scab (Venturia inaequalis) and then remain for 1 day in an incubation cabinet at approximately 20° C. and a relative atmospheric humidity of 100%.
The plants are then placed in a greenhouse at approximately 21° C. and a relative atmospheric humidity of approximately 90%.
(§2) The test is evaluated 10 days after the inoculation. 0% means an efficacy which corresponds to that of the untreated control, while an efficacy of 100% means that no disease is observed.

Sphaerotheca fuliginea = test: Sphaerotheca test (cucumbers)/preventive; format: in vivo
Experimental: as §1
To test for preventive activity, young plants are sprayed with the preparation of active compound at the stated rate of application. After the spray coating has dried on, the plants are inoculated with an aqueous spore suspension of Sphaerotheca fuliginea. The plants are then placed in a greenhouse at approximately 23° C. and a relative atmospheric humidity of approximately 70%.
The test is evaluated 7 days after the inoculation. 0% means an efficacy which corresponds to that of the untreated control, while an efficacy of 100% means that no disease is observed.
as §2

Botrytis cinerea = test: Botrytis test (beans)/preventive; format: in vivo
Experimental: as §1
To test for preventive activity, young plants are sprayed with the preparation of active compound. After the spray coating has dried on, 2 small pieces of agar covered with growth of Botrytis cinerea are placed on each leaf. The inoculated plants are placed in a darkened chamber at 20° C. and a relative atmospheric humidity of 100%.
2 days after the inoculation, the size of the lesions on the leaves is evaluated. 0% means an efficacy which corresponds to that of the untreated control, while an efficacy of 100% means that no disease is observed.
as §2

Alternaria solani = test: whole plant or invertebrate; format: in vivo; settings: for Efficacy in % found: in vivo
Phytophthora infestans = test: whole plant or invertebrate; format: in vivo; settings: Phytophthora infestans, 72 h, tomatoes; for pest or weed control at 5 ppm: 5 ppm a.i.; for pest or weed control at 10 ppm: 10 ppm a.i.; for pest or weed control at 0.01 ppm: 0.01 ppm a.i.; for pest or weed control at 0.0025 ppm: 0.0025 ppm a.i.
[1] = Alternaria solani, 72 h, read-out: Efficacy in % found
[2] = read-out: Efficacy in % found, Table 2
[3] = read-out: Efficacy in % found, Table 3
[4] = read-out: Efficacy in % found, Table 1

Experimental for physchem: Measurement of log P values was performed according EEC directive 79/831 Annex V.A8 by HPLC (High Performance Liquid
Chromatography) on reversed phase columns with the following methods:
^[a]Measurement was done at pH 2.3 with 0.1% phosphoric acid and acetonitrile as eluent.

O=C(Cn1nc(C(F)F)cc1C(F)F)N1CCC(c2nc(C3=NOC(c4c(F)ccc(O)c4F)C3)cs2)CC1 (stereo not drawn) [2-[3,5-bis(difluoromethyl)-1H-pyrazol-1-yl]-1-(4-{4-[5-(2,6-difluoro-3-hydroxyphenyl)-4,5-dihydro-1,2-oxazol-3-yl]-1,3-thiazol-2-yl}piperidin-1-yl)ethanone]
chromatographic logP (physchem; pH 2.7): 2.61

O=C(Cn1nc(C(F)F)cc1C(F)F)N1CCC(c2nc(C3=NOC(c4c(F)cc(O)cc4F)C3)cs2)CC1 (stereo not drawn) [2-[3,5-bis(difluoromethyl)-1H-pyrazol-1-yl]-1-(4-{4-[5-(2,6-difluoro-4-hydroxyphenyl)-4,5-dihydro-1,2-oxazol-3-yl]-1,3-thiazol-2-yl}piperidin-1-yl)ethanone]
chromatographic logP (physchem; pH 2.7): 2.58

O=C(Nc1ccccc1-c1ccc(Cl)cc1)c1cccnc1Cl [2.2, boscalid]
pest or weed control at 12.5 ppm (Venturia inaequalis; Table 10, 12.5 ppm a.i.): 66% | Efficacy in % found (Sphaerotheca fuliginea; Table 13, 25 ppm a.i.): 67%

Oc1cc(F)c(C2CC(c3csc(C4CCNCC4)n3)=NO2)c(F)c1 (stereo not drawn) [4-{4-[5-(2,6-difluoro-4-hydroxyphenyl)-4,5-dihydro-1,2-oxazol-3-yl]-1,3-thiazol-2-yl}piperidinium chloride]
chromatographic logP (physchem; pH 2.7): 0.98

N#Cc1c(Cl)c(Cl)c(Cl)c(C#N)c1Cl [5.4, chlorothalonil]
Efficacy in % found (Botrytis cinerea; Table 12, 5 ppm a.i.): 8%

O=C1c2ccccc2C(=O)N1SC(Cl)(Cl)Cl [5.16, folpet]
pest or weed control at 10 ppm (Venturia inaequalis; Table 11, 10 ppm a.i.): 43% | pest or weed control at 5 ppm (Alternaria solani; [1]): 21% | Efficacy in % found (Botrytis cinerea; Table 12, 10 ppm a.i.): 31% | pest or weed control at 5 ppm (Phytophthora infestans; [2]): 3% | pest or weed control at 10 ppm (Phytophthora infestans; [2]): 3%

Cc1cc(C)nc(Nc2ccccc2)n1 [7.7, pyrimethanil]
pest or weed control at 20 ppm (Alternaria solani; [1]): 4% | Efficacy in % found (Botrytis cinerea; Table 12, 10 ppm a.i.): 15% | pest or weed control at 10 ppm (Phytophthora infestans; [3]): 10%

Cn1c(=O)c2sc3c(=O)n(C)c(=O)c3sc2c1=O [15.60, 2,6-dimethyl-1H,5H-[1,4]dithiino[2,3-c:5,6-c′]dipyrrole-1,3,5,7(2H,6H)-tetrone]
pest or weed control at 25 ppm (Venturia inaequalis; Table 11, 25 ppm a.i.): 54% | pest or weed control at 25 ppm (Alternaria solani; [1]): 29% | pest or weed control at 5 ppm (Phytophthora infestans; [2]): 49%

C#CCOc1ccccc1C1CC(c2csc(C3CCN(C(=O)Cn4nc(C(F)F)cc4C(F)F)CC3)n2)=NO1 (stereo not drawn) [(I-1), 2-[3,5-bis(difluoromethyl)-1H-pyrazol-1-yl]-1-[4-(4-{5-[2-(prop-2-yn-1-yloxy)phenyl]-4,5-dihydro-1,2-oxazol-3-yl}-1,3-thiazol-2-yl)piperidin-1-yl]ethanone]
pest or weed control at 25 ppm (Venturia inaequalis; Table 10, 25 ppm a.i.): 0% | pest or weed control at 100 ppm (Venturia inaequalis; Table 10, 100 ppm a.i.): 8% | pest or weed control at 50 ppm (Venturia inaequalis): 0% | pest or weed control at 100 ppm (Venturia inaequalis; Table 11, 100 ppm a.i.): 0% | pest or weed control at 50 ppm (Alternaria solani; [1]): 21% | pest or weed control at 100 ppm (Alternaria solani; [1]): 0% | Efficacy in % found (Sphaerotheca fuliginea; Table 13, 50 ppm a.i.): 0% | Efficacy in % found (Botrytis cinerea; Table 12, 25 ppm a.i.): 15% | Efficacy in % found (Botrytis cinerea; Table 12, 50 ppm a.i.): 15% | chromatographic logP (physchem; pH 2.7): 3.24 | chromatographic logP (physchem; pH 7.8): 3.34 | pest or weed control at 0.01 ppm (Phytophthora infestans; [4]): 0% | pest or weed control at 0.0025 ppm (Phytophthora infestans; [2]): 52% | pest or weed control at 0.01 ppm (Phytophthora infestans; [2]): 42% | pest or weed control at 0.01 ppm (Phytophthora infestans; [3]): 29% | pest or weed control at 0.01 ppm (Phytophthora infestans; read-out: Efficacy in % found, Table 4): 15% | pest or weed control at 0.0025 ppm (Phytophthora infestans; read-out: Efficacy in % found, Table 5): 64%

C#CCOc1cccc(C2CC(c3csc(C4CCN(C(=O)Cn5nc(C(F)F)cc5C(F)F)CC4)n3)=NO2)c1 (stereo not drawn) [(I-3), 2-[3,5-bis(difluoromethyl)-1H-pyrazol-1-yl]-1-[4-(4-{5-[3-(prop-2-yn-1-yloxy)phenyl]-4,5-dihydro-1,2-oxazol-3-yl}-1,3-thiazol-2-yl)piperidin-1-yl]ethanone]
chromatographic logP (physchem; pH 2.7): 3.16 | chromatographic logP (physchem; pH 7.8): 3.24

C#CCOc1cc(F)c(C2CC(c3csc(C4CCN(C(=O)Cn5nc(C(F)F)cc5C(F)F)CC4)n3)=NO2)c(F)c1 (stereo not drawn) [(I-4), 2-[3,5-bis(difluoromethyl)-1H-pyrazol-1-yl]-1-[4-(4-{5-[2,6-difluoro-4-(prop-2-yn-1-yloxy)phenyl]-4,5-dihydro-1,2-oxazol-3-yl}-1,3-thiazol-2-yl)piperidin-1-yl]ethanone]
chromatographic logP (physchem; pH 2.7): 3.3

C#CCOc1cccc(F)c1C1CC(c2csc(C3CCN(C(=O)Cn4nc(C(F)F)cc4C(F)F)CC3)n2)=NO1 (stereo not drawn) [(I-5), 2-[3,5-bis(difluoromethyl)-1H-pyrazol-1-yl]-1-[4-(4-{5-[2-fluoro-6-(prop-2-yn-1-yloxy)phenyl]-4,5-dihydro-1,2-oxazol-3-yl}-1,3-thiazol-2-yl)piperidin-1-yl]ethanone]
pest or weed control at 50 ppm (Venturia inaequalis): 0% | pest or weed control at 100 ppm (Venturia inaequalis; Table 11, 100 ppm a.i.): 0% | pest or weed control at 50 ppm (Alternaria solani; [1]): 15% | Efficacy in % found (Alternaria solani): 29% | Efficacy in % found (Botrytis cinerea; Table 12, 25 ppm a.i.): 10% | Efficacy in % found (Botrytis cinerea; Table 12, 100 ppm a.i.): 38% | chromatographic logP (physchem; pH 2.7): 3.15 | chromatographic logP (physchem; pH 7.8): 3.18 | pest or weed control at 0.01 ppm (Phytophthora infestans; [4]): 62% | pest or weed control at 0.005 ppm (Phytophthora infestans; read-out: Efficacy in % found, Table 2, 0.005 ppm a.i.): 43%

C#CCOc1ccc(F)c(C2CC(c3csc(C4CCN(C(=O)Cn5nc(C(F)F)cc5C(F)F)CC4)n3)=NO2)c1F (stereo not drawn) [(I-7), 2-[3,5-bis(difluoromethyl)-1H-pyrazol-1-yl]-1-[4-(4-{5-[2,6-difluoro-3-(prop-2-yn-1-yloxy)phenyl]-4,5-dihydro-1,2-oxazol-3-yl}-1,3-thiazol-2-yl)piperidin-1-yl]ethanone]
chromatographic logP (physchem; pH 2.7): 3.17

C#CCOc1ccc(F)cc1C1CC(c2csc(C3CCN(C(=O)Cn4nc(C(F)F)cc4C(F)F)CC3)n2)=NO1 (stereo not drawn) [(I-8), 2-[3,5-bis(difluoromethyl)-1H-pyrazol-1-yl]-1-[4-(4-{5-[5-fluoro-2-(prop-2-yn-1-yloxy)phenyl]-4,5-dihydro-1,2-oxazol-3-yl}-1,3-thiazol-2-yl)piperidin-1-yl]ethanone]
chromatographic logP (physchem; pH 2.7): 3.37 | chromatographic logP (physchem; pH 7.8): 3.44

C#CCOc1cc(OC)ccc1C1CC(c2csc(C3CCN(C(=O)Cn4nc(C(F)F)cc4C(F)F)CC3)n2)=NO1 (stereo not drawn) [(I-9), 2-[3,5-bis(difluoromethyl)-1H-pyrazol-1-yl]-1-[4-(4-{5-[4-methoxy-2-(prop-2-yn-1-yloxy)phenyl]-4,5-dihydro-1,2-oxazol-3-yl}-1,3-thiazol-2-yl)piperidin-1-yl]ethanone]
chromatographic logP (physchem; pH 2.7): 3.25 | chromatographic logP (physchem; pH 7.8): 3.2

C#CCOc1c(F)cccc1C1CC(c2csc(C3CCN(C(=O)Cn4nc(C(F)F)cc4C(F)F)CC3)n2)=NO1 (stereo not drawn) [(I-10), 2-[3,5-bis(difluoromethyl)-1H-pyrazol-1-yl]-1-[4-(4-{5-[3-fluoro-2-(prop-2-yn-1-yloxy)phenyl]-4,5-dihydro-1,2-oxazol-3-yl}-1,3-thiazol-2-yl)piperidin-1-yl]ethanone]
chromatographic logP (physchem; pH 2.7): 3.37 | chromatographic logP (physchem; pH 7.8): 3.48

CC(C)(C)OC(=O)N1CCC(c2nc(C3=NOC(c4c(F)cc(O)cc4F)C3)cs2)CC1 (stereo not drawn) [tert-butyl 4-{4-[5-(2,6-difluoro-4-hydroxyphenyl)-4,5-dihydro-1,2-oxazol-3-yl]-1,3-thiazol-2-yl}piperidine-1-carboxylate]
chromatographic logP (physchem; pH 2.7): 3.24

mancozeb [5.23]
Efficacy in % found (Alternaria solani): 0% | Efficacy in % found (Botrytis cinerea; Table 12, 5 ppm a.i.): 0%
